{"source": "patent US11197880B2", "about": "“Use of eriocitrin compositions for increasing GLP-1 levels” (INGREDIENTS BY NATURE, LLC, priority 2019, dated 2021)", "origin": "cited, not measured here", "system": "mice (C57BL/6J)", "key": {"[1]": {"settings": "mice (C57BL/6J), eriocitrin 140 mg/kg/day"}, "[2]": {"settings": "mice supplemented with eriocitrin, previous study"}}, "data": [{"smiles": "C[C@@H]1O[C@@H](OC[C@H]2O[C@@H](Oc3cc(O)c4c(c3)O[C@H](c3ccc(O)c(O)c3)CC4=O)[C@H](O)[C@@H](O)[C@@H]2O)[C@H](O)[C@H](O)[C@H]1O", "note": "[Eriocitrin, eriodictyol 7-O-B-rutinoside]", "values": [{"measurement": "inflammatory markers (IL-6 and MCP-1)", "setting": "[1]", "value": "decreased inflammatory markers"}, {"measurement": "total antioxidant capacity", "setting": "[1]", "value": "increased total antioxidant capacity"}, {"measurement": "blood glucose", "setting": "[2]", "value": "reduced blood glucose"}, {"measurement": "insulin sensitivity", "setting": "[2]", "value": "improved insulin sensitivity"}]}]}
